The values that follow come from patent US10287267B2, “Isoquinolin-3-yl carboxamides and preparation and use thereof” (Samumed, LLC, priority 2016, dated 2019).

Assay [1] concerns Wnt pathway (Sp5-Luc reporter, TCF/LEF binding sites) in SW480 colon carcinoma cells. Nature of the assay: Screening assay for Wnt activity: Sp5-Luc reporter gene assay.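 On all read-outs here: firefly luciferase luminescence read in stably transduced SW480 cells carrying the Sp5 promoter reporter with eight TCF/LEF sites, compounds given in 0.1% DMSO final.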 The settings on record: Homo sapiens; for inhibition at 10 µM: SW480, read-out: percent inhibition at 10 μM; for EC50: Sp5-Luc reporter, SW480 cells, 36 to 48 hours. It is filed as cell-based, human. (In general: Reporter assays use an easily measured gene product as a stand-in for the process of interest.)
Experimental: The screening assay for Wnt activity is described as follows.
Following incubation, 15 μl of BriteLite Plus luminescence reagent (Perkin Elmer) was added to each well of the 384-well assay plates. The plates were placed on an orbital shaker for 2 min and then luminescence was quantified using the Envision (Perkin Elmer) plate reader.

The target in assay [2] is recombinant DYRK1A kinase (Homo sapiens (Human), UniProt Q13627). In words: DYRK1A kinase assay (Ser/Thr 18 peptide Z-lyte FRET).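 Further: Read-out is the coumarin to fluorescein emission ratio, referenced to unphosphorylated (0%) and phosphorylated (100%) Ser/Thr 18 peptide controls, values from dose-response curves by non-linear regression.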 It is filed as biochemical. The settings on record: 30 μM ATP, 1 h room temperature.
The target in another assay is recombinant GSK3β kinase (Homo sapiens (Human), UniProt P49841). In words: GSK3β kinase assay (Ser/Thr 09 peptide Z-lyte FRET).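 Further: kinase activity read as coumarin to fluorescein emission ratio, 11-point threefold dilutions from 10 µM to 0.0003 µM in duplicate, unphosphorylated and phosphorylated peptide as 0% and 100% controls.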 In kind it is biochemical. The conditions noted are these: 46 μM ATP, 1 h room temperature.
In assay [3] the test system is Tau phosphorylation at Ser396 (pSer396). Nature of the assay: Tau phosphorylation assay (pSer396 ELISA / western blot) in SH-SY5Y cells.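 Further: EC50 for reduction of Tau pSer396 in lysed cells, measured by colorimetric ELISA or chemiluminescent western blot, both using the same pSer396 antibody.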 In kind it is cell-based, human. The conditions noted are these: Homo sapiens; SH-SY5Y cells, overnight (16-18 h) exposure; read-out: pSer396 Tau EC50. A general note: In an ELISA, binding on a coated surface is turned into a signal by an enzyme label.
Experimental: Two days before treatment, cells were seeded onto 96 well plates at 5×10^4 cells/well.
Wells were visually checked for cell death or change in morphology and supernatants were tested for cytotoxicity by measurement of lactate dehydrogenase release (LDH, CytoToxOne kit, Promega) if necessary.
Cells were lysed with RIPA buffer complemented with phosphatase and protease inhibitors then lysates were spun down at 12,000 g for 10 min to remove any cellular debris. Lysates are then either directly tested for pSer396 by ELISA (Life Technology, Kit KHB7031) or loaded on NuPage Bis-Tris gels for western blot analysis. Colorimetric detection of ELISA signal is performed by Cytation3 plate reader (Biotek) and the chemiluminescence signal for HRP-linked antibodies used in western blotting is detected using a Carestream Image Station. The same pSer396 antibody is used for detection of pTau in both assays.

For assay [4], the system named is SW480 colon carcinoma cells. In words: Cell viability assay (CellTiter-Glo). In kind it is cell-based, human. The conditions noted are these: Homo sapiens, 96 h; SW480 cells, CellTiter-Glo, four days incubation. (In general: In ATP-based viability assays light output follows the ATP content of the culture.)
Assay [5] concerns α-smooth muscle actin (αSMA) positive LL29 cells. In words: Inhibition of fibrotic process: αSMA in TGF-β1 treated primary human fibroblasts from IPF patients.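 On all read-outs here: controls were TGF-β1 stimulated wells with DMSO vehicle (positive) and cells given DMSO alone (negative), cultured in F12 medium with 1% fetal bovine serum.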 In kind it is cell-based. The settings on record: Homo sapiens, Fibroblast; for EC50: 96 h, Table 8, LL29 fibroblasts from IPF patients, TGF-β1 20 ng/mL, 4 days, dose-response 10 μM to 0.94 nM; for inhibition at 10 µM: read-out: percent value in parentheses beside EC50 >10 μM.

In the next assay the test system is IL-6. In words: IL-6 inhibition in LPS-stimulated human peripheral blood mononuclear cells (HTRF).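 On all read-outs here: IL-6 detected by HTRF with an XL665- and Cryptate-labelled anti-IL-6 antibody pair, samples run in duplicate, EC50 obtained from a four-parameter Levenberg-Marquardt curve fit.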 In kind it is cell-based. The conditions noted are these: Homo sapiens, PBMC; for inhibition at 10 µM: read-out: percent value in parentheses beside EC50 >10 μM; for EC50: Table 9, huPBMCs, LPS 50 ng/mL, 22 hours, dose-response starting from 10 μM.

Sequence of recombinant GSK3β kinase (P49841 whole entry): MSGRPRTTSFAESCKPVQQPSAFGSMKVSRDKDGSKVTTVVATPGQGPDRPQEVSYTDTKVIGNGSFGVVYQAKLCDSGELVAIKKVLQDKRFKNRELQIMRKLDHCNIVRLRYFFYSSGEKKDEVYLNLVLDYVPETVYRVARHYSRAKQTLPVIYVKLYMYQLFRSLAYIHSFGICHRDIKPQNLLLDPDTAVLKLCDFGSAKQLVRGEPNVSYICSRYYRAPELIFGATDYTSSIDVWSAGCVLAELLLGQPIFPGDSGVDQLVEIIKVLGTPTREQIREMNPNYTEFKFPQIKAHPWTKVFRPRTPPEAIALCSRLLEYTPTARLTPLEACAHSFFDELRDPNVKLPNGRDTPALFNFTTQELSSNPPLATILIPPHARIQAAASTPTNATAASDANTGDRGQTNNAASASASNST
Experimental for IL-6: After 22 hour incubation, a mixture of anti-IL6 XL665 and anti-IL-6 Cryptate diluted in reconstitution buffer (Catalog #62IL6PEC, Cisbio Inc., Bedford, Mass.) was added to each well. […] All samples were processed in duplicate. […] EC50 was determined using software generated by Dotmatics Limited (Windhill Bishops Stortford Herts, UK) using the Levenberg-Marquardt 4 parameter fitting procedure with finite different gradients.

A word on the EC50: it is the concentration that produces a half-maximal response. Regarding `Cn1cc(-c2ccc3cnc(NC(=O)C(C)(C)F)cc3c2)nn1` [Compound 312, 2-Fluoro-2-methyl-N-(6-(1-methyl-1H-1,2,3-triazol-4-yl)isoquinolin-3-yl) propanamide], the inhibition at 10 µM in assay [1] came to 23.8%; in assay [5], 36.5%; with IL-6, 3.9%. The EC50 in assay [1] was over 10 µM; in assay [2], 0.0127 µM; on recombinant GSK3β kinase, 0.031 µM; in assay [3], 0.762 µM; in assay [4] it was over 10 µM; in assay [5], over 10 µM. In addition, in the assay with IL-6, the EC50 is over 10 µM.

As for `CC(C)CN1CCC(C(=O)Nc2cc3cc(-c4cnn(C)c4)cc(F)c3cn2)CC1` [Compound 367, N-(8-Fluoro-6-(1-methyl-1H-pyrazol-4-yl)isoquinolin-3-yl)-1-isobutylpiperidine-4-carboxamide], the EC50 in assay [1] was found to be 0.524 µM; in assay [2] it was 0.0111 µM; on recombinant GSK3β kinase, 0.056 µM; in assay [3], 0.258 µM; in assay [4], 8.24 µM; in assay [5], 0.211 µM. Besides, a half-maximal effect with IL-6 (EC50) was put at 1.15 µM.

For the compound `Cn1nccc1-c1ccc2cnc(NC(=O)C3CCN(CCC(F)(F)F)CC3)cc2c1` [Compound 270, N-(6-(1-Methyl-1H-pyrazol-5-yl)isoquinolin-3-yl)-1-(3,3,3-trifluoropropyl) piperidine-4-carboxamide], the EC50 in assay [1] is over 10 µM; in assay [2], 0.952 µM; at recombinant GSK3β kinase, 5.31 µM; in assay [3] it was over 10 µM; in assay [4], over 10 µM; in assay [5], over 10 µM. In addition, the EC50 with IL-6 was determined as 9.97 µM. The inhibition at 10 µM in assay [5] was found to be 11.4%.

As to `Cc1cc(-c2ccc3cnc(NC(=O)C4CCN(CCC(F)(F)F)CC4)cc3c2)on1` [Compound 307, N-(6-(3-Methylisoxazol-5-yl)isoquinolin-3-yl)-1-(3,3,3-trifluoropropyl) piperidine-4-carboxamide], the values for the inhibition at 10 µM (in assay [1]; with IL-6) were 25.9% and 4.3%, respectively. For the same compound, the EC50 was over 10 µM in assay [1]; 6.22 µM in assay [2]; 5.26 µM at recombinant GSK3β kinase; 2.08 µM in assay [3]; over 10 µM in assay [4]; 7.15 µM in assay [5]. The same compound yielded a half-maximal effective concentration (EC50) in the assay with IL-6 of over 10 µM.

`Cn1cc(-c2ccc3cnc(NC(=O)CN4CCC5(CC4)CC5)cc3c2)cn1` [Compound 296, N-(6-(1-Methyl-1H-pyrazol-4-yl)isoquinolin-3-yl)-2-(6-azaspiro[2.5]octan-6-yl)acetamide]: the EC50 in assay [1] came out at 3.48 µM; in assay [2], 0.0143 µM; at recombinant GSK3β kinase it was 0.08 µM; in assay [3], 0.978 µM; in assay [4], 3.46 µM; in assay [5] it was 1.96 µM. The compound also came in with an EC50 in the assay on IL-6 of 1.57 µM.

For the compound `Cn1cc(-c2ccc3cnc(NC(=O)[C@H]4CC[C@H](CO)CC4)cc3c2)cn1` [Compound 333, trans-4-(Hydroxymethyl)-N-(6-(1-methyl-1H-pyrazol-4-yl)isoquinolin-3-yl)cyclohexane-1-carboxamide], the EC50 in assay [1] amounted to 0.384 µM; in assay [2], 0.0012 µM; on recombinant GSK3β kinase it was 0.06 µM; in assay [3], 1.1 µM; in assay [4], 0.641 µM; in assay [5] it was 0.061 µM. The compound also displayed an EC50 in the assay on IL-6 of 0.79 µM.

For the compound `Cn1cc(-c2ccc3cnc(NC(=O)C4CCN(C(=O)c5ccccc5)CC4)cc3c2)cn1` [Compound 328, 1-Benzoyl-N-(6-(1-methyl-1H-pyrazol-4-yl)isoquinolin-3-yl)piperidine-4-carboxamide], the EC50 is 0.804 µM in assay [1]; 0.0019 µM in assay [2]; 0.016 µM on recombinant GSK3β kinase; 0.231 µM in assay [3]; 0.929 µM in assay [4]; over 10 µM in assay [5]. The compound further displayed a concentration giving a half-maximal response (EC50) in the assay with IL-6 of 0.398 µM. Moreover, the inhibition at 10 µM in assay [5] was determined as 34.5%.

`O=C(Nc1cc2cc(-c3cnco3)ccc2cn1)[C@@H]1CCCNC1` [Compound 975, (R)—N-(6-(Oxazol-5-yl)isoquinolin-3-yl)piperidine-3-carboxamide]: the EC50 in assay [1] worked out at 0.423 µM; in assay [2] it was 0.012 µM; on recombinant GSK3β kinase, 1.09 µM; in assay [3] it was 4.6 µM; in assay [4], 0.334 µM; in assay [5], 0.138 µM. A half-maximal response in the assay on IL-6 (EC50) required 0.425 µM.

With `CC(C)CN1CCC(C(=O)Nc2cc3cc(-c4cnn(C)c4CN4CCCCC4)ccc3cn2)CC1` [Compound 822, 1-isobutyl-N-(6-(1-methyl-5-(piperidin-1-ylmethyl)-1H-pyrazol-4-yl)isoquinolin-3-yl)piperidine-4-carboxamide], the EC50 in assay [1] is 0.517 µM; in assay [2] it was 0.0041 µM; at recombinant GSK3β kinase, 0.009 µM; in assay [3], 0.247 µM; in assay [4], 0.708 µM; in assay [5], 0.212 µM. Further, the concentration for a half-maximal effect (EC50) in the assay with IL-6 was 3.26 µM.

On to `Cc1nc(CN2CCC(C(=O)Nc3cc4cc(-c5cnn(C)c5)ccc4cn3)CC2)no1` [Compound 1005, 1-((5-Methyl-1,2,4-oxadiazol-3-yl)methyl)-N-(6-(1-methyl-1H-pyrazol-4-yl)isoquinolin-3-yl)piperidine-4-carboxamide], for which the EC50 in assay [1] worked out at 1.4 µM; in assay [2], 0.0015 µM; at recombinant GSK3β kinase, 0.032 µM; in assay [3], 0.898 µM; in assay [4], 1.13 µM; in assay [5], 0.072 µM. The EC50 with IL-6 was 2.89 µM.

Regarding `CC(C)N1CCN(CC(=O)Nc2cc3cc(-c4cnn(C)c4)ccc3cn2)CC1` [Compound 352, 2-(4-Isopropylpiperazin-1-yl)-N-(6-(1-methyl-1H-pyrazol-4-yl)isoquinolin-3-yl)acetamide], the EC50 in assay [1] was 2.96 µM; in assay [2], 0.0215 µM; at recombinant GSK3β kinase it was 0.11 µM; in assay [3] it was 1.3 µM; in assay [4] it was 8.6 µM; in assay [5] it was 1.32 µM. This compound also registered an EC50 with IL-6 of 5.03 µM.

For the compound `Cn1cc(-c2cc(F)c3cnc(NC(=O)C4CCNCC4)cc3c2)cn1` [Compound 366, N-(8-Fluoro-6-(1-methyl-1H-pyrazol-4-yl)isoquinolin-3-yl)piperidine-4-carboxamide], the EC50 was 0.334 µM in assay [1]; 0.0106 µM in assay [2]; 0.116 µM on recombinant GSK3β kinase; 1.1 µM in assay [3]; 0.91 µM in assay [4]; 0.173 µM in assay [5]. The EC50 in the assay on IL-6 came out at 1.12 µM.

Consider `Cn1cc(-c2ccc3cnc(NC(=O)C4CCN(C5COC5)CC4)cc3c2)cn1` [Compound 86, N-(6-(1-methyl-1H-pyrazol-4-yl)isoquinolin-3-yl)-1-(oxetan-3-yl)piperidine-4-carboxamide], for which the EC50 in assay [1] is 4 µM; in assay [2], 0.0025 µM; on recombinant GSK3β kinase, 0.048 µM; in assay [3], 0.682 µM; in assay [4], over 10 µM; in assay [5], over 10 µM. In the assay on IL-6, the response was half-maximal at 1.77 µM (EC50). Besides, in assay [5], the inhibition at 10 µM was determined as 14.6%.

Regarding `Cn1cncc1-c1ccc2cnc(NC(=O)[C@H]3CC[C@H](CO)CC3)cc2c1` [Compound 531, trans-4-(Hydroxymethyl)-N-(6-(1-methyl-1H-imidazol-5-yl)isoquinolin-3-yl)cyclohexane-1-carboxamide], the EC50 in assay [1] was 1.06 µM; in assay [2] it was 0.0009 µM; at recombinant GSK3β kinase, 0.05 µM; in assay [3] it was 0.146 µM; in assay [4], 0.989 µM; in assay [5], 0.153 µM. For the same compound, in the assay on IL-6, the EC50 was 0.698 µM.

Turning to `Cn1cc(-c2ccc3cnc(NC(=O)CN4C[C@@H]5C[C@H]4CO5)cc3c2)cn1` [Compound 345, 2-((1S,4S)-2-Oxa-5-azabicyclo[2.2.1]heptan-5-yl)-N-(6-(1-methyl-1H-pyrazol-4-yl)isoquinolin-3-yl)acetamide], the EC50 in assay [1] is 2.12 µM; in assay [2], 0.004 µM; at recombinant GSK3β kinase, 0.026 µM; in assay [3], 0.774 µM; in assay [4] it was 3.08 µM; in assay [5], over 10 µM. In the assay with IL-6, this compound yielded a concentration giving a half-maximal response (EC50) of 4.17 µM. Besides, the inhibition at 10 µM in assay [5] worked out at 38%.

Turning to `O=C(Nc1cc2cc(-c3cncs3)ccc2cn1)C1CC(F)(F)C1` [Compound 699, 3,3-Difluoro-N-(6-(thiazol-5-yl)isoquinolin-3-yl)cyclobutane-1-carboxamide], the EC50 in assay [1] was 0.541 µM; in assay [2], 0.0021 µM; at recombinant GSK3β kinase it was 0.024 µM; in assay [3], 0.423 µM; in assay [4], 0.834 µM; in assay [5] it was 0.234 µM. Besides, the EC50 in the assay with IL-6 turned out to be 0.41 µM.

Turning to `C[C@H](C(=O)Nc1cc2cc(-c3cnn(C)c3)ccc2cn1)N1CCCC1` [Compound 318, (R)—N-(6-(1-Methyl-1H-pyrazol-4-yl)isoquinolin-3-yl)-2-(pyrrolidin-1-yl) propanamide], the EC50 in assay [1] was determined as 0.442 µM; in assay [2], 0.0588 µM; on recombinant GSK3β kinase, 0.012 µM; in assay [3], 0.072 µM; in assay [4] it was 0.94 µM; in assay [5], 0.073 µM. This compound came in with an EC50 in the assay with IL-6 of 1.03 µM.
